Measurements reported in PubChem BioAssay (NCI).
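Growth conditions: 96-well plates. Treatment: test compound, 48 hours, 5 concentrations. Analysis: linear interpolation between bracketing concentrations; unreached endpoints set to highest concentration. At the TGI there is no net growth.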

How the values were obtained:
Test in all cases: DTP human tumour cell line panel, 48 h
DU-145 prostate = tested on: DU-145 prostate
U251 CNS = tested on: U251 CNS
TK-10 renal = tested on: TK-10 renal
EKVX NSCLC = tested on: EKVX NSCLC
T-47D breast = tested on: T-47D breast
M14 melanoma = tested on: M14 melanoma
PC-3 prostate = tested on: PC-3 prostate
NCI/ADR-RES ovarian = tested on: NCI/ADR-RES ovarian
HCT-116 colon = tested on: HCT-116 colon
SR leukemia = tested on: SR leukemia
HCC-2998 colon = tested on: HCC-2998 colon
SK-MEL-5 melanoma = tested on: SK-MEL-5 melanoma
SN12C renal = tested on: SN12C renal
SNB-75 CNS = tested on: SNB-75 CNS
MOLT-4 leukemia = tested on: MOLT-4 leukemia
OVCAR-5 ovarian = tested on: OVCAR-5 ovarian
HT29 colon = tested on: HT29 colon
OVCAR-4 ovarian = tested on: OVCAR-4 ovarian
SNB-19 CNS = tested on: SNB-19 CNS
MDA-MB-435 = tested on: MDA-MB-435
CCRF-CEM leukemia = tested on: CCRF-CEM leukemia
OVCAR-3 ovarian = tested on: OVCAR-3 ovarian
SF-295 CNS = tested on: SF-295 CNS
A498 renal = tested on: A498 renal
SK-MEL-2 melanoma = tested on: SK-MEL-2 melanoma
KM12 colon = tested on: KM12 colon
NCI-H23 lung = tested on: NCI-H23 lung
CAKI-1 renal = tested on: CAKI-1 renal
MDA-N = tested on: MDA-N
HCT-15 colon = tested on: HCT-15 colon
NCI-H522 lung = tested on: NCI-H522 lung
COLO 205 colon = tested on: COLO 205 colon
OVCAR-8 ovarian = tested on: OVCAR-8 ovarian
UO-31 renal = tested on: UO-31 renal
NCI-H460 lung = tested on: NCI-H460 lung
MALME-3M melanoma = tested on: MALME-3M melanoma
K-562 leukemia = tested on: K-562 leukemia
SF-268 CNS = tested on: SF-268 CNS
SF-539 CNS = tested on: SF-539 CNS
LOX IMVI melanoma = tested on: LOX IMVI melanoma
MCF7 breast = tested on: MCF7 breast
ACHN renal = tested on: ACHN renal
NCI-H226 lung = tested on: NCI-H226 lung
RXF 393 renal = tested on: RXF 393 renal
HOP-62 NSCLC = tested on: HOP-62 NSCLC
HS 578T breast = tested on: HS 578T breast
SK-OV-3 ovarian = tested on: SK-OV-3 ovarian
HOP-92 NSCLC = tested on: HOP-92 NSCLC
HL-60(TB) leukemia = tested on: HL-60(TB) leukemia
SK-MEL-28 melanoma = tested on: SK-MEL-28 melanoma
UACC-257 melanoma = tested on: UACC-257 melanoma
RPMI-8226 leukemia = tested on: RPMI-8226 leukemia
A549 NSCLC = tested on: A549 NSCLC
MDA-MB-231 breast = tested on: MDA-MB-231 breast
786-0 renal = tested on: 786-0 renal
SW-620 colon = tested on: SW-620 colon
IGROV1 ovarian = tested on: IGROV1 ovarian
UACC-62 melanoma = tested on: UACC-62 melanoma

## COC(=O)c1cc(CC2Cc3cc4c(cc3C2)CCC4)cc2c1CCC2
DU-145 prostate
  TGI: > 100 µM
U251 CNS
  TGI: > 100 µM
TK-10 renal
  TGI: > 100 µM
EKVX NSCLC
  TGI: > 100 µM
T-47D breast
  TGI: > 100 µM
M14 melanoma
  TGI: > 100 µM
PC-3 prostate
  TGI: > 100 µM
NCI/ADR-RES ovarian
  TGI: > 100 µM
HCT-116 colon
  TGI: > 100 µM
SR leukemia
  TGI: 94 µM
HCC-2998 colon
  TGI: > 100 µM
SK-MEL-5 melanoma
  TGI: > 100 µM
SN12C renal
  TGI: > 100 µM
SNB-75 CNS
  TGI: > 100 µM
MOLT-4 leukemia
  TGI: 55.7 µM
OVCAR-5 ovarian
  TGI: > 100 µM
HT29 colon
  TGI: > 100 µM
OVCAR-4 ovarian
  TGI: > 100 µM
SNB-19 CNS
  TGI: > 100 µM
MDA-MB-435
  TGI: > 100 µM
CCRF-CEM leukemia
  TGI: > 100 µM
OVCAR-3 ovarian
  TGI: > 100 µM
SF-295 CNS
  TGI: > 100 µM
A498 renal
  TGI: > 100 µM
SK-MEL-2 melanoma
  TGI: > 100 µM
KM12 colon
  TGI: > 100 µM
NCI-H23 lung
  TGI: > 100 µM
CAKI-1 renal
  TGI: > 100 µM
MDA-N
  TGI: > 100 µM
HCT-15 colon
  TGI: > 100 µM
NCI-H522 lung
  TGI: > 100 µM
COLO 205 colon
  TGI: > 100 µM
OVCAR-8 ovarian
  TGI: > 100 µM
UO-31 renal
  TGI: > 100 µM
NCI-H460 lung
  TGI: > 100 µM
MALME-3M melanoma
  TGI: > 100 µM
K-562 leukemia
  TGI: > 100 µM
SF-268 CNS
  TGI: > 100 µM
SF-539 CNS
  TGI: > 100 µM
LOX IMVI melanoma
  TGI: > 100 µM
MCF7 breast
  TGI: > 100 µM
ACHN renal
  TGI: > 100 µM
NCI-H226 lung
  TGI: > 100 µM
RXF 393 renal
  TGI: > 100 µM
HOP-62 NSCLC
  TGI: > 100 µM
HS 578T breast
  TGI: > 100 µM
SK-OV-3 ovarian
  TGI: > 100 µM
HOP-92 NSCLC
  TGI: > 100 µM
HL-60(TB) leukemia
  TGI: > 100 µM
SK-MEL-28 melanoma
  TGI: > 100 µM
UACC-257 melanoma
  TGI: > 100 µM
RPMI-8226 leukemia
  TGI: > 100 µM
A549 NSCLC
  TGI: > 100 µM
MDA-MB-231 breast
  TGI: > 100 µM
786-0 renal
  TGI: > 100 µM
SW-620 colon
  TGI: > 100 µM
IGROV1 ovarian
  TGI: > 100 µM

## C/C(O)=c1\cc(C#N)c(=C(C#N)C#N)nc1C
DU-145 prostate
  TGI: > 100 µM
U251 CNS
  TGI: > 100 µM
EKVX NSCLC
  TGI: > 100 µM
T-47D breast
  TGI: > 100 µM
M14 melanoma
  TGI: > 100 µM
PC-3 prostate
  TGI: > 100 µM
NCI/ADR-RES ovarian
  TGI: > 100 µM
HCT-116 colon
  TGI: > 100 µM
SR leukemia
  TGI: > 100 µM
HCC-2998 colon
  TGI: > 100 µM
SK-MEL-5 melanoma
  TGI: > 100 µM
SN12C renal
  TGI: > 100 µM
SNB-75 CNS
  TGI: > 100 µM
MOLT-4 leukemia
  TGI: > 100 µM
OVCAR-5 ovarian
  TGI: > 100 µM
HT29 colon
  TGI: > 100 µM
OVCAR-4 ovarian
  TGI: > 100 µM
SNB-19 CNS
  TGI: > 100 µM
MDA-MB-435
  TGI: > 100 µM
CCRF-CEM leukemia
  TGI: > 100 µM
A498 renal
  TGI: > 100 µM
SK-MEL-2 melanoma
  TGI: > 100 µM
UACC-62 melanoma
  TGI: > 100 µM
KM12 colon
  TGI: > 100 µM
NCI-H23 lung
  TGI: > 100 µM
CAKI-1 renal
  TGI: > 100 µM
MDA-N
  TGI: > 100 µM
HCT-15 colon
  TGI: > 100 µM
NCI-H522 lung
  TGI: > 100 µM
COLO 205 colon
  TGI: > 100 µM
OVCAR-8 ovarian
  TGI: > 100 µM
UO-31 renal
  TGI: > 100 µM
NCI-H460 lung
  TGI: > 100 µM
MALME-3M melanoma
  TGI: > 100 µM
K-562 leukemia
  TGI: > 100 µM
SF-268 CNS
  TGI: > 100 µM
SF-539 CNS
  TGI: > 100 µM
LOX IMVI melanoma
  TGI: > 100 µM
MCF7 breast
  TGI: > 100 µM
ACHN renal
  TGI: > 100 µM
NCI-H226 lung
  TGI: > 100 µM
RXF 393 renal
  TGI: > 100 µM
HOP-62 NSCLC
  TGI: > 100 µM
HS 578T breast
  TGI: > 100 µM
HOP-92 NSCLC
  TGI: > 100 µM
HL-60(TB) leukemia
  TGI: > 100 µM
SK-MEL-28 melanoma
  TGI: > 100 µM
RPMI-8226 leukemia
  TGI: > 100 µM
A549 NSCLC
  TGI: > 100 µM
MDA-MB-231 breast
  TGI: > 100 µM
786-0 renal
  TGI: > 100 µM
SW-620 colon
  TGI: > 100 µM
IGROV1 ovarian
  TGI: > 100 µM

## Cc1cc(C23OC4COC(C)(C)OC4C2OC(C)(C)O3)nc2ccccc12 (stereo unspecified)
DU-145 prostate
  TGI: > 100 µM
U251 CNS
  TGI: > 100 µM
TK-10 renal
  TGI: > 100 µM
EKVX NSCLC
  TGI: > 100 µM
T-47D breast
  TGI: > 100 µM
M14 melanoma
  TGI: > 100 µM
PC-3 prostate
  TGI: > 100 µM
NCI/ADR-RES ovarian
  TGI: > 100 µM
HCT-116 colon
  TGI: > 100 µM
SR leukemia
  TGI: > 100 µM
HCC-2998 colon
  TGI: > 100 µM
SK-MEL-5 melanoma
  TGI: > 100 µM
SN12C renal
  TGI: > 100 µM
SNB-75 CNS
  TGI: > 100 µM
MOLT-4 leukemia
  TGI: > 100 µM
OVCAR-5 ovarian
  TGI: > 100 µM
HT29 colon
  TGI: > 100 µM
OVCAR-4 ovarian
  TGI: > 100 µM
SNB-19 CNS
  TGI: > 100 µM
MDA-MB-435
  TGI: > 100 µM
CCRF-CEM leukemia
  TGI: > 100 µM
OVCAR-3 ovarian
  TGI: > 100 µM
SF-295 CNS
  TGI: > 100 µM
SK-MEL-2 melanoma
  TGI: > 100 µM
UACC-62 melanoma
  TGI: > 100 µM
KM12 colon
  TGI: > 100 µM
NCI-H23 lung
  TGI: > 100 µM
MDA-N
  TGI: > 100 µM
HCT-15 colon
  TGI: > 100 µM
NCI-H522 lung
  TGI: > 100 µM
COLO 205 colon
  TGI: > 100 µM
OVCAR-8 ovarian
  TGI: > 100 µM
UO-31 renal
  TGI: > 100 µM
NCI-H460 lung
  TGI: > 100 µM
MALME-3M melanoma
  TGI: > 100 µM
K-562 leukemia
  TGI: > 100 µM
SF-268 CNS
  TGI: > 100 µM
SF-539 CNS
  TGI: > 100 µM
LOX IMVI melanoma
  TGI: > 100 µM
MCF7 breast
  TGI: > 100 µM
ACHN renal
  TGI: > 100 µM
NCI-H226 lung
  TGI: > 100 µM
RXF 393 renal
  TGI: > 100 µM
HOP-62 NSCLC
  TGI: > 100 µM
HS 578T breast
  TGI: > 100 µM
SK-OV-3 ovarian
  TGI: > 100 µM
HOP-92 NSCLC
  TGI: > 100 µM
HL-60(TB) leukemia
  TGI: > 100 µM
SK-MEL-28 melanoma
  TGI: > 100 µM
UACC-257 melanoma
  TGI: > 100 µM
RPMI-8226 leukemia
  TGI: > 100 µM
A549 NSCLC
  TGI: > 100 µM
MDA-MB-231 breast
  TGI: > 100 µM
786-0 renal
  TGI: > 100 µM
SW-620 colon
  TGI: > 100 µM
IGROV1 ovarian
  TGI: > 100 µM
